What was measured:
mice [1] = details: 15.5 µmol/kg s.c. chronic, day 1 to day 4; cited from earlier work
mice [2] = details: cited from earlier work
Description: This is particularly important given the current rise in the abuse of prescription opioids, commonly MOR agonists. The MOR is established to play a major role in analgesia, but also on the undesirable opioid side effect of reward, with deletion of the gene encoding MOR (Oprm1) completely blocking opioid analgesia and reward behavior in rodents. To this aim, we used the conditioned place preference (CPP) paradigm, as described previously. The CPP is a w ...

[3] = in vivo; cited from earlier work
mice [4] = system: mice; set-up: method as in PMID 30571123; details: s.c.; cited from earlier work
[5] = biological target: human mu-opioid receptor (MOR), stably expressed in CHO cells (CHO-hMOR), in membranes (human) (UniProt P35372)
Chain of human mu-opioid receptor (MOR), stably expressed in CHO cells (CHO-hMOR), in membranes (human) (P35372 whole entry): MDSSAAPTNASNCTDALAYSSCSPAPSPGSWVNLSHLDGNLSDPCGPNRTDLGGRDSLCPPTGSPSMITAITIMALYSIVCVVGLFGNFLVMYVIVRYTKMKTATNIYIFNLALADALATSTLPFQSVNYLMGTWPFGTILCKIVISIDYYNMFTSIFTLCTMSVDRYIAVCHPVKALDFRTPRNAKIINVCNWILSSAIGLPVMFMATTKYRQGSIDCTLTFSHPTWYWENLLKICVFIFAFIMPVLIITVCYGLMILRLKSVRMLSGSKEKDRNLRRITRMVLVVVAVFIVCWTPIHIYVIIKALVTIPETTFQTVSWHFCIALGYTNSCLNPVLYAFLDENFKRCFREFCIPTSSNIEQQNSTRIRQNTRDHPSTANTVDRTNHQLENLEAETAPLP

CN1CC[C@]23c4c5ccc(O)c4O[C@H]2[C@@H](O)C=C[C@H]3[C@H]1C5 [morphine]
Spontaneous locomotor activity of morphine (mice [1]): significant hyperlocomotion from day 1 to day 4
Rewarding effect of morphine, CPP (mice [2]; 15.5 µmol/kg daily, vs saline): significant place preference compared to the saline group
CPP with narcotic drugs (mice [2]; mice): produce CPP
Sedation and locomotor activity [3]: known to produce sedation and to reduce locomotor activity
ED50, writhing assay (mass) (mice [4]): 0.437 mg/kg
ED50, writhing assay (molar) (mice [4]): 1.36 µmol/kg

COc1ccc2c3c1O[C@H]1C(=O)CC[C@@]4(O)[C@@H](C2)N(C)CC[C@]314 [oxycodone]
Sedation and locomotor activity [3]: known to produce sedation and to reduce locomotor activity

KGFF09 (H-Dmt-DArg-Aba-βAla-Bpa-Phe-NH2) (peptide)
[35S]GTPγS binding (G protein activation), membranes from CHO-hMOR cells: EC50 [5]: 8.28 nM
[35S]GTPγS binding (G protein activation), membranes from CHO-hMOR cells: Emax (% of DAMGO) [5]: 92%

[D-Ala2,N-Me-Phe4,Gly-ol5]enkephalin (DAMGO) (peptide)
[35S]GTPγS binding (G protein activation), membranes from CHO-hMOR cells: EC50 [5]: 35 nM
[35S]GTPγS binding (G protein activation), membranes from CHO-hMOR cells: Emax (%, the reference set to 100) [5]: 100%

— PMC9780937 (Molecules, 2022)
